Experimental data as given in paper PMC5318439, “The Novel Toll-Like Receptor 2 Agonist SUP3 Enhances Antigen Presentation and T Cell Activation by Dendritic Cells” (Frontiers in Immunology, 2017).
Where a SMILES comes first, the peptide text is derived from it. The star is where a group is joined. X1 = CCCCCCCCCCCCCCNC(=O)OC[C@H](C*)OC(=O)NCCCCCCCCCCCCCC; Palmitoyl = CCCCCCCCCCCCCCCC(=O)*

Legend:
[1] = test system: splenic B cells; experiment: B cell activation markers in vitro; format: cell-based, mice; settings: 200 nM, 2 × 10^6 cells/mL, 24 h
Text: Splenic DCs were purified as described previously ([37]). CD8^+ cDCs expanded by B16-Flt3L inoculation were enriched, and then CD8^+ cDCs were positively sorted by MACS technology (Miltenyi Biotec). Splenic B cells were purified through negative selection by Streptavidin-MicroBeads (Miltenyi Biotec 130-048-102) combined with different antibodies cocktail to exclude non-B cells. The antibodies cocktail was composed of biotinylated antibodies against CD4 (T cells and DCs) (eBioscience, clone GK1.5), CD8 (T cells and DCs) (eBioscience, clone 53-6.7), CD43 (T cells, monocytes, granulocytes) (eBioscience, clone eBioR2/60), and Ter119 (erythrocytes) (eBioscience, clone TER119). B cells were further purified through MACS LS column (Miltenyi Biotec 130-042-401).
Figure 7 SUP3 promoted stronger B cell activation in vitro. Purified splenic B cells (2 × 10^6 cells/mL) were treated with SUP3 (200 nM), Pam3 (200 nM), or lipopolysaccharide (LPS) (1.5 µg/mL), respectively. (A) Surface CD25, CD40, and CD86 were stained 24 h post-stimulation. (B) Supernatants were harvested 3 or 5 days post-stimulation, and total IgM in the supernatant was determined by ELISA. Representative data was from two independent experiments with triplicated wells in each group (**p < 0.01).

[2] = test system: RAW 264.7 cells; experiment: TNFα production by WT RAW 264.7 cells; format: cell-based; settings: 500 nM, 8 h
Description: Splenic DCs (5 × 10^5 cells/mL) were stimulated by Pam3 (200 nM), SUP3 (200 nM), or CpG ODN 1668 (20 nM; Adipogen IAX-200-001) in the GM-CSF (20 ng/mL) supplemented medium for indicated periods. Cell culture supernatants were harvested at indicated time points and stored at −40°C. […] For in vivo administration, Pam3 (2 nmol per mouse), SUP3 (2 nmol per mouse), or LPS (1 µg per mouse) were intravenously (i.v.) injected via tail veins. Serum was obtained through tail vein bleeding and centrifuged after coagulation and stored at −40°C. Cytokines (IL-6, eBioscience 88-7064; TNFα, eBioscience 88-7324; IL-12p40, BioLegend 431604), chemokine (MIP1α, R&D Systems DY450-05), and total IgM (eBioscience, 88-50470) were quantified by ELISA kits following the instructions of manufacturers.
Figure 1 Specificity and activity of novel TLR2 agonist SUP3. (A) Schematic chemical structure of SUP3. (B) Surface expression of TLR2 in wild-type (WT) and Tlr2^−/− RAW 264.7 cell lines. Gray shadows represented isotype control and black lines represented TLR2. (C) TNFα production by RAW 264.7 cells upon stimulation with lipopolysaccharide (LPS) (1 µg/mL), Pam3CSK4 (Pam3 hereafter) (500 nM), or SUP3 (500 nM) for 8 h. […] The production of cytokines IL-6 and TNFα in culture supernatant was determined by ELISA. *p < 0.05, ****p < 0.0001, “n.s.” indicates statistically non-significant.

[3] = Serum inflammatory cytokines after i.v. administration; format: in vivo, mice; settings: 2 nmol per mouse i.v., 1 h, ELISA
Description: Splenic DCs (5 × 10^5 cells/mL) were stimulated by Pam3 (200 nM), SUP3 (200 nM), or CpG ODN 1668 (20 nM; Adipogen IAX-200-001) in the GM-CSF (20 ng/mL) supplemented medium for indicated periods. Cell culture supernatants were harvested at indicated time points and stored at −40°C. RAW 264.7 cells and GMDCs were stimulated by lipopolysaccharide (LPS) (20 ng/mL; Adipogen IAX-100-013), Pam3, or SUP3 (both at 200 nM) for 24 h. For in vivo administration, Pam3 (2 nmol per mouse), SUP3 (2 nmol per mouse), or LPS (1 µg per mouse) were intravenously (i.v.) injected via tail veins. Serum was obtained through tail vein bleeding and centrifuged after coagulation and stored at −40°C. Cytokines (IL-6, eBioscience 88-7064; TNFα, eBioscience 88-7324; IL-12p40, BioLegend 431604), chemokine (MIP1α, R&D Systems DY450-05), and total IgM (eBioscience, 88-50470) were quantified by ELISA kits following the instructions of manufacturers.
Figure 2 SUP3 induced more vigorous cytotoxic T lymphocytes (CTLs) responses than Pam3CSK4 without excessive production of inflammatory cytokines in vivo. […] The percentages of pentamer positive cells (CD19^− CD3^+ CD8^+ SIINFEKL/H-2Kb-Pentamer^+) in spleens, i.e., the OVA-specific CD8^+ T cells, were determined by flow cytometry (A) and the statistic calculation is presented in (B). […] “n.d.” indicates “not detected.” *p < 0.05, **p < 0.01. […]

serum IL-6, TNFα, IL-12p40 and MIP1α levels [3]	Compound	CD25, CD40, and CD86 on B lymphocytes [1]	TNFα production by WT RAW cells [2]
maintained at low levels	CCCCCCCCCCCCCCCC(=O)N[C@@H](CSC[C@@H](COC(=O)NCCCCCCCCCCCCCC)OC(=O)NCCCCCCCCCCCCCC)C(=O)NCC(=O)N[C@@H](CCCCN)C(=O)N[C@@H](CCCCN)C(=O)N[C@@H](CCCCN)C(=O)O [SUP3, (2S,5S,8S,14R,18R)-2,5,8-tris(4-aminobutyl)-4,7,10,13,21-pentaoxo-14-palmitamido-18-((tetradecylcarbamoyl)oxy)-20-oxa-16-thia-3,6,9,12,22-pentaazahexatriacontan-1-oic acid] (Palmitoyl-C(X1)GKKK-OH)	marked upregulation	large amount of TNFα production
maintained at low levels	Pam3CSK4 [reference compound]	marked upregulation	large amount of TNFα production
